Where two headings read alike, the source gives them in different places.
Columns and labels:
Assay in all cases: biochemical
Type in all cases: binding
468 kinases [1] = target: 468 kinases (Homo sapiens, UniProt Q16584); conditions: MLK3; read-out: % Inhibition @ 100 nM
468 kinases [2] = target: 468 kinases (Homo sapiens, UniProt P51817); conditions: PRKX; read-out: % Inhibition @ 100 nM
468 kinases [3] = target: 468 kinases (Homo sapiens, UniProt Q13557); conditions: CAMK2D; read-out: % Inhibition @ 100 nM
468 kinases (Homo sapiens, UniProt Q13557), sequence (Q13557 2-499 limits assumed): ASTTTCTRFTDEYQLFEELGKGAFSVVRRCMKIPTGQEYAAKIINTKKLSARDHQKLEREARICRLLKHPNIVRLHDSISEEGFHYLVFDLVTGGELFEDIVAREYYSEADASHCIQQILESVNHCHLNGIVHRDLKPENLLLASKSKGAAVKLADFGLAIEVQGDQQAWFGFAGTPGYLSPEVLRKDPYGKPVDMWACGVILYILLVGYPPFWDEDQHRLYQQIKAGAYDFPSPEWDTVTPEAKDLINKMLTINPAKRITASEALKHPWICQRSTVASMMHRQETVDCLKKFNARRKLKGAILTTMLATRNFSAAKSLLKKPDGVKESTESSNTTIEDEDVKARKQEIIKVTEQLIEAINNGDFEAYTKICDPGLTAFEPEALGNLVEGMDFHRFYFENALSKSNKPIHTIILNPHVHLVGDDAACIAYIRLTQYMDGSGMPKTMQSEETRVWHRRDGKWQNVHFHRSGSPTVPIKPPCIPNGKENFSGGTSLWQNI

468 kinases [4] = target: 468 kinases (Homo sapiens, UniProt O95382); conditions: ASK2; read-out: % Inhibition @ 100 nM
468 kinases [5] = target: 468 kinases (Homo sapiens, UniProt P14616); conditions: INSRR; read-out: % Inhibition @ 100 nM
468 kinases (Homo sapiens, UniProt P14616), sequence (P14616 27-742 limits assumed): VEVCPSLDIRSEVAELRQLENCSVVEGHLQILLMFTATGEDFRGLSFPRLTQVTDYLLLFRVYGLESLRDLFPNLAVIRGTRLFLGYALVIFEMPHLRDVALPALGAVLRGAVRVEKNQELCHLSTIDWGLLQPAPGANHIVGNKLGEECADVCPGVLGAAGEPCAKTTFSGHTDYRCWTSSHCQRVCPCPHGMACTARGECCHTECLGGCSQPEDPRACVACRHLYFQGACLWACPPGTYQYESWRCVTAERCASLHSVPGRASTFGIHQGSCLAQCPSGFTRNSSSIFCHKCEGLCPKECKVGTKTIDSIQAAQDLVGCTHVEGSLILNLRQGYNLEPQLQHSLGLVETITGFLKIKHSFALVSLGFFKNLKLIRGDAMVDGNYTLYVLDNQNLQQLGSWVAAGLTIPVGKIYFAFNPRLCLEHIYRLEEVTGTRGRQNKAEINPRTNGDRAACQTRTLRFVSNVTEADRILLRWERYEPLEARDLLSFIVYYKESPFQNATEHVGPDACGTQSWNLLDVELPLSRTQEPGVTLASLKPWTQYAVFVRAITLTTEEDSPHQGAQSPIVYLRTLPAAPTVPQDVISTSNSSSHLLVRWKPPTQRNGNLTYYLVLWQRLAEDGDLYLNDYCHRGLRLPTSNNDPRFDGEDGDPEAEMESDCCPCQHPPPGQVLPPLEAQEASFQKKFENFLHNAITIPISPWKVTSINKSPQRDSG
468 kinases (Homo sapiens, UniProt P14616), sequence (P14616 747-1297 limits assumed): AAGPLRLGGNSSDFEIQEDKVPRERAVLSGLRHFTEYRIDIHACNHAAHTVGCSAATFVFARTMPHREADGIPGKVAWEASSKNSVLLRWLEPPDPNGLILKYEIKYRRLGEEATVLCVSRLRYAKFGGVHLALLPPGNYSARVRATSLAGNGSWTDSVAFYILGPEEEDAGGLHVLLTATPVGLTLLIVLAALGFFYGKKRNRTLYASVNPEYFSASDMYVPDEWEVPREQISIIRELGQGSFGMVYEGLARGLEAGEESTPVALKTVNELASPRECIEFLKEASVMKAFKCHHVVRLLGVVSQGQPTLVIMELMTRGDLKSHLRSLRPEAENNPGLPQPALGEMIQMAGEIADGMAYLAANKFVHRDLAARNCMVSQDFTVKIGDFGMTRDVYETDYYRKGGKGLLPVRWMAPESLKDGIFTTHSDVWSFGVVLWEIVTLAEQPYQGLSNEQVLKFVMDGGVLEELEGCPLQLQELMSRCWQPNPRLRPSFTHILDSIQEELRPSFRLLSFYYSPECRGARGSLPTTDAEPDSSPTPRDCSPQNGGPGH

468 kinases [6] = target: 468 kinases (Homo sapiens, UniProt P42336, Q546K); conditions: PIK3CA(Q546K); read-out: % Inhibition @ 100 nM
468 kinases [7] = target: 468 kinases (Homo sapiens, UniProt P49674); conditions: CSNK1E; read-out: % Inhibition @ 100 nM
468 kinases [8] = target: 468 kinases (Homo sapiens, UniProt Q9UBF8); conditions: PIK4CB; read-out: % Inhibition @ 100 nM
468 kinases (Homo sapiens, UniProt Q9UBF8), sequence (Q9UBF8 2-816 limits assumed): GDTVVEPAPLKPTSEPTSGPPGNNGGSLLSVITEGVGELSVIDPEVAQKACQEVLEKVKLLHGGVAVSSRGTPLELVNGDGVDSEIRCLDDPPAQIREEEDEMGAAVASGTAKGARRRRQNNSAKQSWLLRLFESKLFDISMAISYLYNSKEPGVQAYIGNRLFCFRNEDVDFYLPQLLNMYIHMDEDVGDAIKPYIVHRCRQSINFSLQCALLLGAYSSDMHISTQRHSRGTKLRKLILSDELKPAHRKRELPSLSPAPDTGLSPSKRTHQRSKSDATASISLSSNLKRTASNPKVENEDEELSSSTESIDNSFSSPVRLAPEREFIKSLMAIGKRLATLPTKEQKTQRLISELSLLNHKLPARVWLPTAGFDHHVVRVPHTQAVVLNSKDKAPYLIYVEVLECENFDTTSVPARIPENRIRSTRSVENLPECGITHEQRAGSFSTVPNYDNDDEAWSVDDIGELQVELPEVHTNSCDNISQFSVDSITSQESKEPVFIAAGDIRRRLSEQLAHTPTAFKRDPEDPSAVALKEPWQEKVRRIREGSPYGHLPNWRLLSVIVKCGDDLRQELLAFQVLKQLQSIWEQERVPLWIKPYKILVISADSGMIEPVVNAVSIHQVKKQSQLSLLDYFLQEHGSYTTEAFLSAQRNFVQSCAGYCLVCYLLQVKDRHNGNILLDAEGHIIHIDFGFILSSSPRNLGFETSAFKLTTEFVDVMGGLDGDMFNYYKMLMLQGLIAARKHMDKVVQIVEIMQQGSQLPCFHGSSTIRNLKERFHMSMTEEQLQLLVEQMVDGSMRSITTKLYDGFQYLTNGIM

468 kinases [9] = target: 468 kinases (Homo sapiens, UniProt Q13164); conditions: ERK5; read-out: % Inhibition @ 100 nM
468 kinases (Homo sapiens, UniProt Q13164), sequence (Q13164 2-816 limits assumed): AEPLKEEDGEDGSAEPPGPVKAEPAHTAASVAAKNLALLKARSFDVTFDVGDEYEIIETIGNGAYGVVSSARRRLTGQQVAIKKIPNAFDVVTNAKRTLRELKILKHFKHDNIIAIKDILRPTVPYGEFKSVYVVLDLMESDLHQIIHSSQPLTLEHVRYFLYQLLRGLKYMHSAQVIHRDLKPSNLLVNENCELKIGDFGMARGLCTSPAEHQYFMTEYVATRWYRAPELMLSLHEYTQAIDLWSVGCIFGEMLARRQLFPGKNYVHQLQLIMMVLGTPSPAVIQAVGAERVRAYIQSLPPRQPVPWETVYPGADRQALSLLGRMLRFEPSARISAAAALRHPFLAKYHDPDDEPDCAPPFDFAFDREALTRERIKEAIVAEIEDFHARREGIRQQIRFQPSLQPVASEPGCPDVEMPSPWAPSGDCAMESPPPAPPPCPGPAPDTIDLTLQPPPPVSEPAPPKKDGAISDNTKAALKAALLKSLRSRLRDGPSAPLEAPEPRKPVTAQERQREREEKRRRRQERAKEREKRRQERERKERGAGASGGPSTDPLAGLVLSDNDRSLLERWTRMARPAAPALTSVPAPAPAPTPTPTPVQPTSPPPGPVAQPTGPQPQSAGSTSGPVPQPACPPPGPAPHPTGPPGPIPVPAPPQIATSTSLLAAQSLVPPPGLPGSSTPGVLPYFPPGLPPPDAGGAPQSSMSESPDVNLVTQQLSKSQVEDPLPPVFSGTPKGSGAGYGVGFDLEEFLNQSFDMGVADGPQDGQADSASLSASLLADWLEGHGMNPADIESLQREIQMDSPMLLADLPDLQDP

468 kinases [10] = target: 468 kinases (Homo sapiens, UniProt P22607, G697C); conditions: FGFR3(G697C); read-out: % Inhibition @ 100 nM
468 kinases (Homo sapiens, UniProt P22607, G697C), sequence (P22607 23-806 G697C limits assumed): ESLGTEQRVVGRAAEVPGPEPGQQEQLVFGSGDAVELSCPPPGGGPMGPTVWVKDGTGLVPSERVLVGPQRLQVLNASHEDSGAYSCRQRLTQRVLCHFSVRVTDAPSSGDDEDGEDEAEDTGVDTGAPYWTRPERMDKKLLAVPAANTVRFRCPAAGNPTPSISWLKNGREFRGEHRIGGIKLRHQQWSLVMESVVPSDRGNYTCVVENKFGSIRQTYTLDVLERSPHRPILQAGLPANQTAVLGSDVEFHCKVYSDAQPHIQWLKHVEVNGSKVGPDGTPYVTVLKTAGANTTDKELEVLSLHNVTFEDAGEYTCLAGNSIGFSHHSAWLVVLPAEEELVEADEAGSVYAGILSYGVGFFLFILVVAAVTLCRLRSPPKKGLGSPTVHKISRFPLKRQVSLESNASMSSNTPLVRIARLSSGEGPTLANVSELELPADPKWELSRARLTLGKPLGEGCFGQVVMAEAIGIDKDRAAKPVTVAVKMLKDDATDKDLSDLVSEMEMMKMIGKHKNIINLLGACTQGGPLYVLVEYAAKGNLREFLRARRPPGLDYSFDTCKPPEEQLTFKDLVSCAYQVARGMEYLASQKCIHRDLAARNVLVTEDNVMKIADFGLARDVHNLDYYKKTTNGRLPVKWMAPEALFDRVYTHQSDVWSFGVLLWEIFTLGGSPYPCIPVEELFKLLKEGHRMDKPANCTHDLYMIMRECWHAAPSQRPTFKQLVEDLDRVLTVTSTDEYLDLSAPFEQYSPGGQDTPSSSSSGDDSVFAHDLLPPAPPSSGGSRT

468 kinases [11] = target: 468 kinases (Homo sapiens, UniProt P00519, F317I); conditions: read-out: % Inhibition @ 100 nM
468 kinases [12] = target: 468 kinases (Homo sapiens, UniProt Q15569); conditions: TESK1; read-out: % Inhibition @ 100 nM
468 kinases [13] = target: 468 kinases (Homo sapiens, UniProt Q9UPE1); conditions: SRPK3; read-out: % Inhibition @ 100 nM
468 kinases [14] = target: 468 kinases (Homo sapiens, UniProt Q9Y243); conditions: AKT3; read-out: % Inhibition @ 100 nM
468 kinases [15] = target: 468 kinases (Homo sapiens, UniProt Q8NG66); conditions: NEK11; read-out: % Inhibition @ 100 nM
468 kinases [16] = target: 468 kinases (Homo sapiens, UniProt P52333); conditions: JAK3 (JH1domain-catalytic); read-out: % Inhibition @ 100 nM
468 kinases [17] = target: 468 kinases (Homo sapiens, UniProt O43318); conditions: TAK1; read-out: % Inhibition @ 100 nM
468 kinases [18] = target: 468 kinases (Homo sapiens, UniProt P32298); conditions: GRK4; read-out: % Inhibition @ 100 nM
468 kinases [19] = target: 468 kinases (Homo sapiens, UniProt Q9NQU5); conditions: PAK6; read-out: % Inhibition @ 100 nM
468 kinases [20] = target: 468 kinases (Homo sapiens, UniProt Q56UN5); conditions: YSK4; read-out: % Inhibition @ 100 nM
468 kinases [21] = target: 468 kinases (Homo sapiens, UniProt Q92772); conditions: CDKL2; read-out: % Inhibition @ 100 nM
468 kinases [22] = target: 468 kinases (Homo sapiens, UniProt P36897); conditions: TGFBR1; read-out: % Inhibition @ 100 nM
468 kinases (Homo sapiens, UniProt P36897), sequence (P36897 34-503 limits assumed): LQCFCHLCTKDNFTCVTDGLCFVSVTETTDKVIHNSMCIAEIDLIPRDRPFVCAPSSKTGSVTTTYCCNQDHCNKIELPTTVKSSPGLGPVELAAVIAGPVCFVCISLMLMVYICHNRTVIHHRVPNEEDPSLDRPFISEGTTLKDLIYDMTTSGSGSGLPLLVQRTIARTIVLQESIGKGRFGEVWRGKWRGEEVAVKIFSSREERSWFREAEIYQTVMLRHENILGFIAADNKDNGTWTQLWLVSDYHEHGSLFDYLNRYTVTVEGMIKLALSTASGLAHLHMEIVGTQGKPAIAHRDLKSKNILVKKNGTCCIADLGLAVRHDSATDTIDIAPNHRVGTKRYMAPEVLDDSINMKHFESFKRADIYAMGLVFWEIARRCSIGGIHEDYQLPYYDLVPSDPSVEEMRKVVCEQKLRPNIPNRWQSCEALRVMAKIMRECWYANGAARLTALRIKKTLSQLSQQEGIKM

468 kinases [23] = target: 468 kinases (Homo sapiens, UniProt O14920); conditions: IKK-beta; read-out: % Inhibition @ 100 nM
468 kinases [24] = target: 468 kinases (Homo sapiens, UniProt P31152); conditions: ERK4; read-out: % Inhibition @ 100 nM
468 kinases [25] = target: 468 kinases (Homo sapiens, UniProt P49336); conditions: CDK8; read-out: % Inhibition @ 100 nM
468 kinases [26] = target: 468 kinases (Homo sapiens, UniProt P00533, L861Q); conditions: EGFR(L861Q); read-out: % Inhibition @ 100 nM
468 kinases [27] = target: 468 kinases (Homo sapiens, UniProt Q9Y463); conditions: DYRK1B; read-out: % Inhibition @ 100 nM
468 kinases [28] = target: 468 kinases (Homo sapiens, UniProt Q8NEV4); conditions: MYO3A; read-out: % Inhibition @ 100 nM
468 kinases [29] = target: 468 kinases (Homo sapiens, UniProt P78362); conditions: SRPK2; read-out: % Inhibition @ 100 nM
468 kinases [30] = target: 468 kinases (Homo sapiens, UniProt P48736); conditions: PIK3CG; read-out: % Inhibition @ 100 nM
468 kinases [31] = target: 468 kinases (Homo sapiens, UniProt Q9Y2K2); conditions: QSK; read-out: % Inhibition @ 100 nM
468 kinases [32] = target: 468 kinases (Homo sapiens, UniProt Q8NFD2); conditions: ANKK1; read-out: % Inhibition @ 100 nM
468 kinases [33] = target: 468 kinases (Homo sapiens, UniProt P42336, E545K); conditions: PIK3CA(E545K); read-out: % Inhibition @ 100 nM

| Compound | inhibition at 0.1 µM (468 kinases [1]) | inhibition at 0.1 µM (468 kinases [2]) | inhibition at 0.1 µM (468 kinases [3]) | inhibition at 0.1 µM (468 kinases [4]) | inhibition at 0.1 µM (468 kinases [5]) | inhibition at 0.1 µM (468 kinases [6]) | inhibition at 0.1 µM (468 kinases [7]) | inhibition at 0.1 µM (468 kinases [8]) | inhibition at 0.1 µM (468 kinases [9]) | inhibition at 0.1 µM (468 kinases [10]) | inhibition at 0.1 µM (468 kinases [11]; ABL1 (F317I)-phosphorylated) | inhibition at 0.1 µM (468 kinases [12]) | inhibition at 0.1 µM (468 kinases [13]) | inhibition at 0.1 µM (468 kinases [14]) | inhibition at 0.1 µM (468 kinases [15]) | inhibition at 0.1 µM (468 kinases [16]) | inhibition at 0.1 µM (468 kinases [17]) | inhibition at 0.1 µM (468 kinases [18]) | inhibition at 0.1 µM (468 kinases [19]) | inhibition at 0.1 µM (468 kinases [20]) | also measured |
| --- | --- | --- | --- | --- | --- | --- | --- | --- | --- | --- | --- | --- | --- | --- | --- | --- | --- | --- | --- | --- | --- |
| CCN(CC)CCNC(=O)c1c(C)[nH]c(/C=C2\C(=O)Nc3ccc(CCO)cc32)c1C [Compound No. 10, (Z)—N-(2-(Diethylamino)ethyl)-5-((5-(2-hydroxyethyl)-2-oxoindolin-3-ylidene)methyl)-2,4-dimethyl-1H-pyrrole-3-carboxamide] | 20% | 0% | 20% | 0% | 1% | 0% | 37% | 0% | 6% | 52% | 0% | 10% | 88% | 47% | 0% | 17% | 59% | 79% | 0% | 90.4% | inhibition at 0.1 µM (468 kinases [11]; ABL1 (F317I)-nonphosphorylated): 8%; inhibition at 0.1 µM (468 kinases [21]): 10%; inhibition at 0.1 µM (468 kinases [22]): 11%; inhibition at 0.1 µM (468 kinases [23]): 8%; inhibition at 0.1 µM (468 kinases [24]): 0%; inhibition at 0.1 µM (468 kinases [25]): 23%; inhibition at 0.1 µM (468 kinases [26]): 39%; inhibition at 0.1 µM (468 kinases [27]): 75%; inhibition at 0.1 µM (468 kinases [28]): 0%; inhibition at 0.1 µM (468 kinases [29]): 66%; inhibition at 0.1 µM (468 kinases [30]): 0%; inhibition at 0.1 µM (468 kinases [31]): 0%; inhibition at 0.1 µM (468 kinases [32]): 53%; inhibition at 0.1 µM (468 kinases [33]): 56% |
| CCN(CC)CCNC(=O)c1c(C)[nH]c(/C=C2\C(=O)Nc3ccc(CCC(N)=O)cc32)c1C [Compound No. 16, (Z)-5-((5-(3-Amino-3-oxopropyl)-2-oxoindolin-3-ylidene)methyl)-N-(2-(diethylamino)ethyl)-2,4-dimethyl-1H-pyrrole-3-carboxamide] | 0% | 9% | 4% | 47% | 10% | 3% | 4% | 10% | 100% | 12% | 31% | 5% | 77% | 17% | 36% | 48% | 61% | 72% | 0% | 98.2% | inhibition at 0.1 µM (468 kinases [21]): 5%; inhibition at 0.1 µM (468 kinases [22]): 1%; inhibition at 0.1 µM (468 kinases [23]): 19%; inhibition at 0.1 µM (468 kinases [24]): 4%; inhibition at 0.1 µM (468 kinases [25]): 15%; inhibition at 0.1 µM (468 kinases [26]): 4%; inhibition at 0.1 µM (468 kinases [27]): 0%; inhibition at 0.1 µM (468 kinases [28]): 1%; inhibition at 0.1 µM (468 kinases [29]): 51%; inhibition at 0.1 µM (468 kinases [30]): 22%; inhibition at 0.1 µM (468 kinases [31]): 0%; inhibition at 0.1 µM (468 kinases [32]): 66%; inhibition at 0.1 µM (468 kinases [33]): 41% |

From US12435059B2, “AMP-activated protein kinase inhibitors and methods of making and using the same” (The Regents of the University of Colorado, priority 2019, dated 2025)
